Experimental data reported in patent publication US6844356B2, “Hemorrhoid therapeutic treatment” (priority 2003, dated 2005).

How the values were obtained:
[1] = cited from earlier work
[2] = tested on: hemorrhoid; experiment: injection of the solution into the hemorrhoid of patients; type: in vivo; settings: injected into the hemorrhoid as water solution
Procedure: A chemical treatment for the permanent relief of hemorrhoids is provided by the chemical composition of this invention. The composition comprises a mixture of Yong Noe, a Chinese herb known to Western man as camphor, quinine, and distilled water. These two ingredients are ground into powder and dissolved in distilled water. The composition is then injected by a medical practitioner into the affected area at least once, and perhaps several times, over a two week period. After a period of time, the hemorrhoidal tissue will turn dark, harden, and flake off leaving the skin clear at the site of the former hemorrhoid. A mixture of Yong Noe and quinine in a […] in an amount of 37.5 grams are divided into 7 equal weight portions. Each portion of the mixture is dissolved in 4 grams of water by placing the composition in a container in boiling water for 3-5 minutes. The composition is a clear whitish solution. This solution is used at room temperature as the medicament for the treatment of hemorrhoids as will be discussed infra. […] The composition of 37.5 grams of solids is comprised of 25 grams of quinine and 12.5 grams of camphor. This mixture is equally divided and filled into seven different 10 cc vials, and 4 cc distilled water is added to each vial. […]

CC12CCC(CC1=O)C2(C)C (centres unmarked) [Camphor]
solubility [1]: only slightly soluble in water

C=C[C@H]1C[N@@]2CC[C@H]1C[C@H]2[C@H](O)c1ccnc2ccc(OC)cc12 [quinine alone, quinine]
result of injection into the hemorrhoid [2]: not effectual
